Reference: article PMC11093748, “De novo identification of CD4^+ T cell epitopes” (Nature Methods, 2024)

Key:
BDC2.5 TCR = experiment: I-Ag7 SABR-II library screen, enrichment score; type: cell-based, mouse; conditions: I-Ag7 library
Excerpt: We then asked whether SABR-IIs could be used to present a library of epitopes for CD4^+ T cell antigen discovery. To that end, we constructed a SABR-II library to present epitopes derived from pancreatic islets in I-Ag7 by curating a list of 4,075 published epitopes from the Immune Epitope Database (iedb.org)[50] and a study by Wan et al.[51] (Supplementary Table 1). Of note, this defined library consisted of unmodified epitopes from endogenous proteins, synthetic mimotopes, deamidated epitopes and hybrid insulin peptides (HIPs) that arise from post-translational fusion and are not genetically encoded in vivo[52],[53]. The epitope library was inserted into the I-Ag7 SABR-II backbone through pooled oligonucleotide synthesis, amplification and ligation-free cloning (Extended Data Fig. 3a). The I-Ag7 SABR-II-library was then expressed in NFAT–GFP Jurkat cells. We confirmed that after sequencing, the library accounted for a mean of 708 reads per epitope (Extended Data Fig. 3b). As a proof of concept, we performed co-incubation assays with Jurkat cells expressing the BDC2.5 TCR and sorted the top 1–2% of GFP^+CD69^+ cells at a rate of ~20 min per replicate with three replicates per TCR. We extracted the genomic DNA from sorted cells, amplified the SABR portion of the integrated proviruses and subjected the amplicons to Illumina sequencing (Extended Data Fig. 3c,d). The 1–2% sort gate represents >50-fold enrichment of cognate epitopes with minimal loss of signal (Extended Data Fig. 3e–h). Sequence reads were aligned to the I-Ag7 SABR-II backbone and the corresponding epitopes were scored based on their read counts. For each TCR under investigation, an enrichment score (ES) was determined for all the epitopes in a library. In each experiment, three replicates of a sort with TCR-expressing Jurkat cells were performed and reads were counted post-sequencing. In addition, three replicates of the unsorted library were also sequenced. A linear regression model was built using the unsorted library counts and used to determine the expected abundance of each epitope in the library. The ES was calculated based on the difference between the measured and the expected abundance of each epitope on a per-TCR basis (Fig. 1e). Based on ES values, two quantitative thresholds were used to determine putative cognate epitopes of a given TCR. A high-confidence zone containing clear outliers with a high ES and a low-confidence zone containing weak outliers with a moderately high ES were determined (Fig. 1e). This two-tiered strategy was used to call putative hits from screens. All the top-scoring epitopes for the BDC2.5 TCR were known BDC2.5 ligands containing the WXRM(D/E) motif (Fig. 1f,g, enriched ligands in red), a well-characterized trait of the BDC2.5 TCR[43],[54]–[56]. Across several independent experiments there was limited variation in ES values for the same TCRs and several epitopes fell into high- or low-confidence zones consistently (Extended Data Fig. 4a). Using a different TCR that was isolated from NOD mice, 4-8Ins[57], which recognized the InsB9:23 epitope ([…]), we observed a similar pattern of ES for cognate epitopes (Extended Data Fig. 4b).
For SABR library screens, 3 × 10^6 NFAT–GFP Jurkat cells expressing the SABR library were labeled with CellTrace Violet (BioLegend) according to the manufacturer’s protocol before incubation with 3 × 10^6 Jurkat cells expressing the TCR of interest. These mixtures were incubated in a six-well plate for 16–20 h. Cells were stained with anti-CD69-APC-Cy7 where indicated (BioLegend) and the top 1–2% of GFP^+CD69^+ cells were sorted for genomic DNA extraction, indexing and sequencing (see below). Multiplexed assays were scaled on a per-TCR basis (for example 3 × 10^6 for each of three TCRs against 9 × 10^6 library cells). […]

Jurkat cells, No TCR = experiment: Single SABR-II co-incubation, background without TCR; type: cell-based, human; conditions: No TCR, Ext. Data Fig. 6C, 18-20 hr
Excerpt: (§1) We performed systematic screening of the cloned TCRs against the I-Ag7 SABR-II library. Several TCRs along with a positive control (such as BDC2.5 or 4-8Ins) were screened individually against the library for each sort (Extended Data Fig. 6a and Supplementary Table 4). High- and low-confidence ES zones for each screened TCR were defined by the ES values of the control TCR’s cognate epitopes. For all putative cognate epitopes, single SABR-IIs were constructed, expressed in NFAT–GFP Jurkat cells and used for co-incubation with the corresponding TCRs. Co-incubation assays that yielded a GFP signal higher than that obtained in assays with no TCR were determined to be positive and the epitopes deemed true cognate ligands (Extended Data Fig. 6b,c). Using this strategy, we obtained epitopes in the high-confidence zone for eight TCRs (Fig. 3a and Extended Data Fig. 6b,d). Among numerous altered peptide ligands (APLs), these TCRs recognized the physiological InsC-ChgA HIP ([…] and analogs, recognized by TCR5, TCR6B, TCR9 and TCR34), InsC-Iapp HIP ([…] and analogs, recognized by TCR4 and TCR15) and InsB9:23 ([…] and analogs recognized by TCR24 and TCR37). These cognate high-confidence hits were validated using single SABR-II co-incubation assays (Fig. 3b and Extended Data Fig. 7a). Further validations using in vitro mouse interleukin-2 (mIL-2) secretion by TCR-expressing 5KC reporter cells[13] or CD25 expression by TCR-expressing splenic CD4^+ T cells upon stimulation with the cognate epitope were performed (Extended Data Fig. 7b,c). Furthermore, low-confidence hits were called for ten TCRs and tested in co-incubation assays.
(§2) For SABR library screens, 3 × 10^6 NFAT–GFP Jurkat cells expressing the SABR library were labeled with CellTrace Violet (BioLegend) according to the manufacturer’s protocol before incubation with 3 × 10^6 Jurkat cells expressing the TCR of interest. These mixtures were incubated in a six-well plate for 16–20 h. Cells were stained with anti-CD69-APC-Cy7 where indicated (BioLegend) and the top 1–2% of GFP^+CD69^+ cells were sorted for genomic DNA extraction, indexing and sequencing (see below). Multiplexed assays were scaled on a per-TCR basis (for example 3 × 10^6 for each of three TCRs against 9 × 10^6 library cells). For single SABR assays, unless otherwise defined, 5 × 10^5 SABR expressing NFAT–GFP Jurkat cells (or 5KC cells) were labeled with CellTrace Violet (BioLegend) according to the manufacturer’s protocol before incubation with 5 × 10^5 TCR-expressing Jurkat cells (or 5KC cells) in a round-bottom 96-well plate for 16–20 h. Cells were stained with anti-CD69-APC-Cy7 when indicated and acquired on the Attune NxT flow cytometer (Thermo Fisher Scientific). All flow analysis was performed using FlowJo (BD). For Daudi cell co-culture, 1 × 10^6 Jurkat cells expressing the TCR of interest were incubated with 1 × 10^6 Daudi cells expressing a SABR of interest for 3 days. On day 3, cells were labeled with anti-RT1B-PE and anti-Fas-APC-Cy7 before being acquired on the Attune NxT flow cytometer.

TCR4 = experiment: Single SABR-II co-incubation, NFAT-GFP Jurkat; type: cell-based, mouse; conditions: TCR 4, Ext. Data Fig. 6C, 18-20 hr
Excerpt: as §1, §2

[1] = EXPT1 of 8 biological experiments

Sequence | Enrichment score (BDC2.5 TCR; [1]) | Enrichment score (BDC2.5 TCR; EXPT2 of 8) | Enrichment score (BDC2.5 TCR; EXPT3 of 8) | Enrichment score (BDC2.5 TCR; EXPT4 of 8) | Enrichment score (BDC2.5 TCR; EXPT5 of 8) | Enrichment score (BDC2.5 TCR; EXPT6 of 8) | Enrichment score (BDC2.5 TCR; EXPT7 of 8) | Enrichment score (BDC2.5 TCR; EXPT8 of 8) | %GFP+CD69+ cells of SABR-NFAT-GFP-Jurkat cells (Jurkat cells, No TCR; technical replicate 1) [%] | %GFP+CD69+ cells of SABR-NFAT-GFP-Jurkat cells (Jurkat cells, No TCR; technical replicate 2) [%] | %GFP+CD69+ cells of SABR-NFAT-GFP-Jurkat cells (TCR4; technical replicate 1) [%] | %GFP+CD69+ cells of SABR-NFAT-GFP-Jurkat cells (TCR4; technical replicate 2) [%]
SRLGLWVRMA [top putative hit of BDC2.5 TCR in I-Ag7 library] | 0.000692 | 0.000345 | 0.000603 | 0.000358 | 0.000683 | 0.000858 | 0.0006 | 0.000465 |  |  |  | 
SRLGAWVRME [top putative hit of BDC2.5 TCR in I-Ag7 library] | 0.000522 | 0.000175 | 0.000684 | 0.000306 | 0.000243 | 0.000632 | 0.000765 | 0.000784 |  |  |  | 
AAVRPLWVRMEAA [top putative hit of BDC2.5 TCR in I-Ag7 library] | 0.000742 | 0.000415 | 0.000612 | 0.000371 | 0.0007 | 0.000851 | 0.000576 | 0.000606 |  |  |  | 
RVRPLWVRME [top putative hit of BDC2.5 TCR in I-Ag7 library] | 0.001251 | 0.001157 | 0.001581 | 0.000795 | 0.001224 | 0.001618 | 0.001744 | 0.001586 |  |  |  | 
RRALQTLALNAARDP |  |  |  |  |  |  |  |  | 4.17 | 3.8 | 12.8 | 12.1
PGAGDLQTLALNAARDP |  |  |  |  |  |  |  |  | 2.65 | 2.56 | 20.2 | 20.4
RTRPLWVRME [top putative hit of BDC2.5 TCR in I-Ag7 library] | 0.000766 | 0.000703 | 0.00077 | 0.000734 | 0.001024 | 0.001078 | 0.001083 | 0.001303 |  |  |  | 
